Test results as given in ChEMBL document CHEMBL1759913, “Discovery of the first non-ATP competitive IGF-1R kinase inhibitors: advantages in comparison with competitive inhibitors” (Bioorg Med Chem Lett, 2011).
Converted amounts (≈) assume the structure as drawn.

Experiments:
[1] = molecular target: T1, Insulin-like growth factor 1 receptor (Homo sapiens, UniProt P08069); test: Inhibition of IGF-induced autophosphosphorylation of GST-tagged human IGF1R expressed in SF21 cells by time resolved-fluorescent assay
T1 sequence (P08069 31-736 limits assumed): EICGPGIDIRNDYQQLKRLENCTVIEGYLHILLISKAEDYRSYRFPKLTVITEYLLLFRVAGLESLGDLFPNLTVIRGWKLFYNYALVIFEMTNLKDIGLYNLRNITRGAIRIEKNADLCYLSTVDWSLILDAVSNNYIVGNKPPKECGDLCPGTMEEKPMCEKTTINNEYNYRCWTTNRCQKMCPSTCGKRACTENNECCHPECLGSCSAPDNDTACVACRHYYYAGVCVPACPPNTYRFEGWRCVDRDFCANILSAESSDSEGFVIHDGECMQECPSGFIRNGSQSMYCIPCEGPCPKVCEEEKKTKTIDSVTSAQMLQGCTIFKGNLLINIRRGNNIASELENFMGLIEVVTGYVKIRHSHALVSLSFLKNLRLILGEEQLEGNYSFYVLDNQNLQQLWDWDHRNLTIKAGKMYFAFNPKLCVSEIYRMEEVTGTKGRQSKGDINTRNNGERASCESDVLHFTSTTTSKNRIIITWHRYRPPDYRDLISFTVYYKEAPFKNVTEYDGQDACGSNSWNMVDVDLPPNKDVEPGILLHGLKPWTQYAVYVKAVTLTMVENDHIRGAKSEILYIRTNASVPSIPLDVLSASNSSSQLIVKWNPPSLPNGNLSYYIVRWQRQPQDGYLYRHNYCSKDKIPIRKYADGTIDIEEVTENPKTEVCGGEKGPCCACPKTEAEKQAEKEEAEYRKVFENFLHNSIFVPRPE
T1 sequence (P08069 741-1367 limits assumed): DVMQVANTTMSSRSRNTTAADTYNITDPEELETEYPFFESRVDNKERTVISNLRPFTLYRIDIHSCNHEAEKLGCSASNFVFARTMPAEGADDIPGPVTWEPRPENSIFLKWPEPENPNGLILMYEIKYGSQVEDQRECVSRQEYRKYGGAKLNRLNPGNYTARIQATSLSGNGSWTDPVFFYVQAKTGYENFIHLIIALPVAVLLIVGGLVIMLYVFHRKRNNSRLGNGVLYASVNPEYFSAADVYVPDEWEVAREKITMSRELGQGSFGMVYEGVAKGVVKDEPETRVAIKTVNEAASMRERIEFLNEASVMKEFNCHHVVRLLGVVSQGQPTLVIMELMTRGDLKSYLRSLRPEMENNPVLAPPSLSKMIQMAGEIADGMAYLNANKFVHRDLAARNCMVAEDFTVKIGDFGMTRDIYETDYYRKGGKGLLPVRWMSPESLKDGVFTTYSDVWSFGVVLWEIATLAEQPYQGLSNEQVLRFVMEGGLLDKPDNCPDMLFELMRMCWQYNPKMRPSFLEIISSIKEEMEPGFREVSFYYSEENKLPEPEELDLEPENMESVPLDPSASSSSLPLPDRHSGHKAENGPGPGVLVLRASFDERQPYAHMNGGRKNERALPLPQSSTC

[2] = molecular target: T1, Insulin-like growth factor 1 receptor; test: Inhibition of autophosphosphorylation of human IGF1R expressed in IGF1-stimulated MCF7 cells by ELISA; type: cell-based
[3] = molecular target: T1, Insulin-like growth factor 1 receptor; test: Inhibition of IGF-induced autophosphosphorylation of GST-tagged human IGF1R expressed in SF21 cells after 10 mins by time resolved-fluorescent assay
MEF = test: Antiproliferative activity against mouse MEF cells transfected with human IGF1R assessed as inhibition of IGF1-induced proliferation after 72 hrs by [14C]thymidine incorporation assay; type: functional, cell-based
[4] = molecular target: T1, Insulin-like growth factor 1 receptor; test: Inhibition of autophosphosphorylation of human IGF1R expressed in IGF1-stimulated MCF7 cells preincubated for 60 mins by ELISA; type: cell-based
[5] = molecular target: T1, Insulin-like growth factor 1 receptor; test: Inhibition of IGF-induced autophosphosphorylation of GST-tagged human IGF1R expressed in baculovirus-SF21 cell system preincubated for 30 mins by time resolved-fluorescent assay
[6] = molecular target: T1, Insulin-like growth factor 1 receptor; test: Inhibition of IGF-induced autophosphosphorylation of GST-tagged human IGF1R expressed in baculovirus-SF21 cell system preincubated for 60 mins by time resolved-fluorescent assay
[7] = molecular target: T1, Insulin-like growth factor 1 receptor; test: Inhibition of IGF-induced autophosphosphorylation of GST-tagged human IGF1R expressed in baculovirus-SF21 cell system preincubated for 5 mins by time resolved-fluorescent assay
[8] = molecular target: T1, Insulin-like growth factor 1 receptor; test: Inhibition of IGF-induced autophosphosphorylation of GST-tagged human IGF1R expressed in baculovirus-SF21 cell system preincubated for 10 mins by time resolved-fluorescent assay
[9] = Cmax in BALB/c mouse plasma at 10 mg/kg, po upto 24 hrs; type: ADME, organism-based; parameters: dose 10 mg/kg, route oral
Cytochrome P450 1A2 = molecular target: T2, Cytochrome P450 1A2 (Homo sapiens, UniProt P05177); test: Inhibition of CYP1A2; type: ADME
T2 sequence (P05177 whole entry): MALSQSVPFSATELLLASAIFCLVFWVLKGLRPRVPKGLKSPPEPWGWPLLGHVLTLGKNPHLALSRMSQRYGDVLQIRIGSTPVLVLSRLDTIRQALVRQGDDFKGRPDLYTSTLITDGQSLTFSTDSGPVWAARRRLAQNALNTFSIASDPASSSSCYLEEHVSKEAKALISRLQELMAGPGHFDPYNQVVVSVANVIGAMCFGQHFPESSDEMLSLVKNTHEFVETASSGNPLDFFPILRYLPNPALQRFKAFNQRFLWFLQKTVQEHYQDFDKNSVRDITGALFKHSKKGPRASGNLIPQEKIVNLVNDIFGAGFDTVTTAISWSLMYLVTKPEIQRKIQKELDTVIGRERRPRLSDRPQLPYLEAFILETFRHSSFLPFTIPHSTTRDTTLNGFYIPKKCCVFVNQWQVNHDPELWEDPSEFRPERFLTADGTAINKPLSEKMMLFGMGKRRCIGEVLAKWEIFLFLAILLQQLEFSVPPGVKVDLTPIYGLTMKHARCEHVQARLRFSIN

[10] = Solubility of compound; type: physicochemical
Cytochrome P450 3A4 = Cytochrome P450 3A4 (Homo sapiens, UniProt P08684); test: Inhibition of CYP3A4; type: ADME
Cytochrome P450 3A4, sequence (P08684 whole entry): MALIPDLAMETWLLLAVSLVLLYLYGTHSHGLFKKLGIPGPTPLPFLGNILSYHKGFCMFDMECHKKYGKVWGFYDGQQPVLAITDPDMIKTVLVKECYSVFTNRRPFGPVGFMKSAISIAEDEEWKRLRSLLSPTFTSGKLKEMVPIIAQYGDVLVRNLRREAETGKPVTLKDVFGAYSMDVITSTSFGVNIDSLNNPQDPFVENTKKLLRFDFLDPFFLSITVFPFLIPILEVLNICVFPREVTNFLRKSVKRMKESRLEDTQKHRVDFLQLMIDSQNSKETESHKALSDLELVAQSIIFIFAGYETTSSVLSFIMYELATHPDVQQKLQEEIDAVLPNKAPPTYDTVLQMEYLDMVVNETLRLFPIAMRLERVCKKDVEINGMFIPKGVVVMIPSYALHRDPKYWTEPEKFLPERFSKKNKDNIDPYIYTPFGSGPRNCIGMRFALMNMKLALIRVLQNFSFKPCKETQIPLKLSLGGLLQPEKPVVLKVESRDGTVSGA

[11] = Metabolic stability in human microsomes assessed as compound remaining after 15 mins; type: ADME, Microsome; conditions: read-out: Stability
Cytochrome P450 2C19 = Cytochrome P450 2C19 (Homo sapiens, UniProt P33261); test: Inhibition of CYP2C19; type: ADME
Cytochrome P450 2C19, sequence (P33261 whole entry): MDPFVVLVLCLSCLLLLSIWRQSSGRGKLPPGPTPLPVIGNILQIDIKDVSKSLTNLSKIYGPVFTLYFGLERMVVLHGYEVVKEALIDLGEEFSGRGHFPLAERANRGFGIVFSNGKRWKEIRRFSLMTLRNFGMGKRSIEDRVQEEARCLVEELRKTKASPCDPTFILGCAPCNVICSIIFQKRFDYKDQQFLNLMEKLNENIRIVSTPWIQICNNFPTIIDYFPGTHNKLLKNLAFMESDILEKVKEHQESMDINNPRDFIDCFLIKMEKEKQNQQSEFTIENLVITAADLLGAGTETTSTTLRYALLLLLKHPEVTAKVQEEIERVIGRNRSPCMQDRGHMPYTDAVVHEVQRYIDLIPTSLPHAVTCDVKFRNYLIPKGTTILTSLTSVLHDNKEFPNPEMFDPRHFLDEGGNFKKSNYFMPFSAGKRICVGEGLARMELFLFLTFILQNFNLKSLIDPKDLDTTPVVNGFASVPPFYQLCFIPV

Cytochrome P450 2C9 = Cytochrome P450 2C9 (Homo sapiens, UniProt P11712); test: Inhibition of CYP2C9; type: ADME
Cytochrome P450 2C9, sequence (P11712 whole entry): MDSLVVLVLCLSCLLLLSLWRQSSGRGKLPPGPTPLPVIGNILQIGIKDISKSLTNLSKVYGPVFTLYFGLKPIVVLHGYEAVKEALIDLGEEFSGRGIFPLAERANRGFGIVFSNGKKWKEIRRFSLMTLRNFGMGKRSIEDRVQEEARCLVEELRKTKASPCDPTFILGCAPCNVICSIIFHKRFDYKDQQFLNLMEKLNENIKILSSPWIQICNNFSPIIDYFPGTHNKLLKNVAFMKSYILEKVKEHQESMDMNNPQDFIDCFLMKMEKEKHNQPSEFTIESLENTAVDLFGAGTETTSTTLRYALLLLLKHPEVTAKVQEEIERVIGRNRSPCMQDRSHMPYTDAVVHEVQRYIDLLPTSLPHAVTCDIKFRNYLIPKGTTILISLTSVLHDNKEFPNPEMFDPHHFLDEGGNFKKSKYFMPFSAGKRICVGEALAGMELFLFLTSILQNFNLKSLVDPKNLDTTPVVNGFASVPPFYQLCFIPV

[12] = Metabolic stability in mouse liver microsomes assessed as compound remaining after 15 mins
[13] = AUC (0 to infinity) in BALB/c mouse at 10 mg/kg, po; type: ADME, organism-based; parameters: time infinity, dose 10 mg/kg, route oral; conditions: plasma
Insulin receptor = Insulin receptor (Homo sapiens, UniProt P06213); test: Inhibition of insulin receptor kinase
Insulin receptor, sequence (P06213 28-758 limits assumed): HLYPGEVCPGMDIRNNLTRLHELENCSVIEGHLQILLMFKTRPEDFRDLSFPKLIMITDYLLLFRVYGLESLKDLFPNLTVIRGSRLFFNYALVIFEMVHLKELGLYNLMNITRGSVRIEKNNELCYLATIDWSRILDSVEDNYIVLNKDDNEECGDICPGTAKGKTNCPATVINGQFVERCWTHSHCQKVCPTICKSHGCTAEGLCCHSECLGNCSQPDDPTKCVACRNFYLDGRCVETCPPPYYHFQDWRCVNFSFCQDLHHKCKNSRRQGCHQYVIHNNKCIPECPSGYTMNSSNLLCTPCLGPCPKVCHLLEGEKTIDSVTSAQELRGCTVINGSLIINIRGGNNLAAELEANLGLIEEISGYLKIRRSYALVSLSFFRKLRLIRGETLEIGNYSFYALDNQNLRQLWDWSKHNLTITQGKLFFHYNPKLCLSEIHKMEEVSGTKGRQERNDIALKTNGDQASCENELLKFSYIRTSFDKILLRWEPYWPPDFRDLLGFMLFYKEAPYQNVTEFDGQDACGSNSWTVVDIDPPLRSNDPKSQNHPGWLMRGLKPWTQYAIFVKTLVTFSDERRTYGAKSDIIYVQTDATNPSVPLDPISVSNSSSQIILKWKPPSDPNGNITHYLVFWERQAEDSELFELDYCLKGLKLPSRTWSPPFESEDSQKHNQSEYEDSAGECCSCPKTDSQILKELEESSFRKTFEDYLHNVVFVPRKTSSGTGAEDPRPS
Insulin receptor, sequence (P06213 763-1382 limits assumed): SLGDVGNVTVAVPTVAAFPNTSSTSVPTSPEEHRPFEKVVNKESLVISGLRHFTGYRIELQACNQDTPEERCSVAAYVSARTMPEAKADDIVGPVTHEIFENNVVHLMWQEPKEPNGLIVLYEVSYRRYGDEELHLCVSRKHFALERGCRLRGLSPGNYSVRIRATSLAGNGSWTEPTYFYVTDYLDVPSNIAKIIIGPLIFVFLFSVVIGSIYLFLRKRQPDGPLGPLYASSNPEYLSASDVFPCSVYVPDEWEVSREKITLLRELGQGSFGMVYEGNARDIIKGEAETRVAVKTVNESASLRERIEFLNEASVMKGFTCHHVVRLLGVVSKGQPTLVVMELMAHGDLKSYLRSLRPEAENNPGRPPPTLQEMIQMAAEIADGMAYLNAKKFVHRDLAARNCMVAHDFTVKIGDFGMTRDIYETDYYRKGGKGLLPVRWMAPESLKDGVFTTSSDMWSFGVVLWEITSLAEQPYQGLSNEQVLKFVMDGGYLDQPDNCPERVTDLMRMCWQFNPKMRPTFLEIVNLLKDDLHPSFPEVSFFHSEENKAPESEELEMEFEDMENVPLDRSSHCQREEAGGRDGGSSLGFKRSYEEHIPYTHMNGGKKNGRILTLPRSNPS

Cytochrome P450 2D6 = Cytochrome P450 2D6 (Homo sapiens, UniProt P10635); test: Inhibition of CYP2D6; type: ADME
Cytochrome P450 2D6, sequence (P10635 whole entry): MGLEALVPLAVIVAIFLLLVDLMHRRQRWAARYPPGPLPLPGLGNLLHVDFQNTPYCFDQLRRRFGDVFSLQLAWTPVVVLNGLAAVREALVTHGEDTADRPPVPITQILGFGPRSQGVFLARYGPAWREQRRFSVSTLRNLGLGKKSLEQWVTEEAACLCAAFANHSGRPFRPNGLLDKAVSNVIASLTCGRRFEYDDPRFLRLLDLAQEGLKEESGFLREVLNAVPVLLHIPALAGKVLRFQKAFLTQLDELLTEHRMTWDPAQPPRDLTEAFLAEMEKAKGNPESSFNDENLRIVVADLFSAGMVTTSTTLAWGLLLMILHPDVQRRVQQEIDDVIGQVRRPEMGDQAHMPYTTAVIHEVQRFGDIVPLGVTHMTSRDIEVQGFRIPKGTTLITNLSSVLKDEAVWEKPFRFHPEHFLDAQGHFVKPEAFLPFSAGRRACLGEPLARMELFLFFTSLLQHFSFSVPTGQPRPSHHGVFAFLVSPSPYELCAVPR

[14] = Oral bioavailability in BALB/c mouse at 10 mg/kg; type: ADME, organism-based; conditions: in vivo

Work on `C[C@H]1C(=O)N(c2ccc(S(=O)(=O)C(F)(F)F)cc2)C(=O)N1Cc1cccnc1` yielded an IC50 [1] of 79700 nM.

In the case of `C[C@H]1C(=O)N(c2ccc(S(=O)(=O)C(F)(F)F)cc2)C(=O)N1Cc1cc[n+]([O-])c2ccccc12`, the IC50 [1] is reported as over 100000 nM.

In the case of `CC1(C)C(=O)N(c2ccc(SC(F)(F)F)cc2)C(=O)N1Cc1ccnc(NC2CCCCC2)c1`, the IC50 [1] is reported as 1240 nM.

With `CC1(C)C(=O)N(c2ccc(S(=O)(=O)C(F)(F)F)cc2)C(=O)N1Cc1ccnc2ccccc12` the IC50 [1] was 460 nM.

With `CC1(C)C(=O)N(c2ccc(SC(F)(F)F)cc2)C(=O)N1Cc1ccnc(N)c1` the IC50 [2] was 34 nM, the IC50 [1] was 92 nM and the IC50 [3] was 92 nM. It also gave an IC50 (MEF) of 97 nM.

`CC1(C)C(=O)N(c2ccc(SC(F)(F)F)cc2)C(=O)N1Cc1ccnc(C(=O)O)c1` showed an IC50 [1] of over 10000 nM.

In the case of `CC1(C)C(=O)N(c2ccc(SC(F)(F)F)cc2)C(=O)N1Cc1ccnc(N2CCCCC2)c1`, the IC50 [1] is reported as over 10000 nM.

In the case of `CC1(C)C(=O)N(c2ccc(SC(F)(F)F)cc2)C(=O)N1Cc1ccncc1`, the IC50 [2] is reported as 117 nM, the IC50 [1] is reported as 264 nM and the IC50 [3] is reported as 264 nM. It also gave an IC50 (MEF) of 282 nM.

In the case of `CC1(C)C(=O)N(c2ccc(SC(F)(F)F)cc2)C(=O)N1Cc1ccnc(N2CCOCC2)c1`, the IC50 [1] is reported as over 10000 nM.

`CC1(C)C(=O)N(c2ccc(SC(F)(F)F)cc2)C(=O)N1Cc1ccnc(C#N)c1` gave an IC50 [1] of over 10000 nM.

In the case of `COc1cc2c(-c3cc4cccnc4[nH]3)cn(C)c2cc1OC`, the IC50 [4] is reported as 180 nM, the IC50 [5] is reported as 33 nM and the IC50 [2] is reported as 145 nM. The IC50 [6] was 35 nM, the IC50 [1] was 55 nM and the IC50 [7] was 34 nM. It also gave an IC50 [8] of 34 nM and an IC50 (MEF) of 1600 nM.

`CC1(C)C(=O)N(c2ccc(SC(F)(F)F)cc2)C(=O)N1Cc1ccnc(NS(C)(=O)=O)c1` showed an IC50 [1] of 4710 nM.

For `CC1(C)C(=O)N(c2ccc(SC(F)(F)F)cc2)C(=O)N1Cc1ccnc(C(N)=O)c1`, the IC50 [1] was 2950 nM.

With `COc1ccc(CNc2cc(CN3C(=O)N(c4ccc(SC(F)(F)F)cc4)C(=O)C3(C)C)ccn2)cc1` the IC50 [1] was 1090 nM.

Molecule `CC1(C)C(=O)N(c2ccc(SC(F)(F)F)cc2)C(=O)N1Cc1ccnc(NCc2ccccc2)c1` has an IC50 [1] of 1050 nM.

For `CNC(=O)c1cc(CN2C(=O)N(c3ccc(SC(F)(F)F)cc3)C(=O)C2(C)C)ccn1`, the IC50 [1] was 703 nM.

For `C[C@H]1C(=O)N(c2ccc(S(=O)(=O)C(F)(F)F)cc2)C(=O)N1Cc1c[nH]cn1`, the IC50 [1] was over 100000 nM.

Molecule `C[C@H]1C(=O)N(c2ccc(S(=O)(=O)C(F)(F)F)cc2)C(=O)N1Cc1ccccn1` has an IC50 [1] of over 100000 nM.

`CCc1cc(CN2C(=O)N(c3ccc(SC(F)(F)F)cc3)C(=O)C2(C)C)ccn1` showed an IC50 [1] of 574 nM.

`O=C1CN(Cc2ccnc3ccccc23)C(=O)N1c1ccc(S(=O)(=O)C(F)(F)F)cc1` showed an IC50 [1] of 5400 nM.

`C[C@H]1C(=O)N(c2ccc(S(=O)(=O)C(F)(F)F)cc2)C(=O)N1CC1CCNCC1` showed an IC50 [1] of over 100000 nM.

With `CC1(C)C(=O)N(c2ccc(SC(F)(F)F)cc2)C(=O)N1Cc1ccnc(Cl)c1` the IC50 [1] was 995 nM.

Molecule `C[C@H]1C(=O)N(c2ccc(S(=O)(=O)C(F)(F)F)cc2)C(=O)N1Cc1cc[n+]([O-])cc1` has an IC50 [1] of over 100000 nM.

Work on `CC1(C)C(=O)N(c2ccc(SC(F)(F)F)cc2)C(=O)N1Cc1ccnc(N2CCNCC2)c1` yielded an IC50 [1] of over 10000 nM.

`CN1CCN(c2cc(CN3C(=O)N(c4ccc(SC(F)(F)F)cc4)C(=O)C3(C)C)ccn2)CC1` gave an IC50 [1] of over 10000 nM.

In the case of `CC1(C)C(=O)N(c2ccc(SC(F)(F)F)cc2)C(=O)N1Cc1ccnc(Nc2ccccc2)c1`, the IC50 [1] is reported as 1060 nM.

Work on `CC(=O)Nc1cc(CN2C(=O)N(c3ccc(SC(F)(F)F)cc3)C(=O)C2(C)C)ccn1` yielded an IC50 [4] of 7 nM, an IC50 [5] of 28 nM and an IC50 [2] of 7 nM. For the same molecule, the IC50 [6] was 7 nM, the IC50 [1] was 98 nM and the IC50 [7] was 175 nM. It also gave an IC50 [8] of 87 nM, an IC50 [3] of 98 nM and an IC50 (MEF) of 8 nM.

Molecule `CCOc1cc(CN2C(=O)N(c3ccc(SC(F)(F)F)cc3)C(=O)C2(C)C)ccn1` has an IC50 [1] of 1850 nM.

`CN(C)c1cc(CN2C(=O)N(c3ccc(SC(F)(F)F)cc3)C(=O)C2(C)C)ccn1` showed an IC50 [1] of 4500 nM.

For `CC(C)Nc1cc(CN2C(=O)N(c3ccc(SC(F)(F)F)cc3)C(=O)C2(C)C)ccn1`, the IC50 [1] was 453 nM.

In the case of `C[C@H]1C(=O)N(c2ccc(S(=O)(=O)C(F)(F)F)cc2)C(=O)N1Cc1ccncc1`, the IC50 [1] is reported as 1600 nM.

In the case of `C[C@H]1C(=O)N(c2ccc(S(C)(=O)=O)cc2)C(=O)N1Cc1ccnc2ccccc12`, the IC50 [1] is reported as over 100000 nM.

With `C[C@H]1C(=O)N(c2ccc([S+]([O-])C(F)(F)F)cc2)C(=O)N1Cc1ccnc2ccccc12` (stereo not given in full) the IC50 [1] was 2520 nM.

In the case of `C[C@H]1C(=O)N(c2ccc(S(=O)(=O)C(F)(F)F)cc2)C(=O)N1Cc1cnc2ccccc2c1`, the IC50 [1] is reported as over 100000 nM.

Molecule `C[C@H]1C(=O)N(c2ccc(S(=O)(=O)C(F)(F)F)cc2)C(=O)N1Cc1ccccc1` has an IC50 [1] of over 100000 nM.

`CC(C)(C)OC(=O)Nc1cc(CN2C(=O)N(c3ccc(SC(F)(F)F)cc3)C(=O)C2(C)C)ccn1` gave an IC50 [1] of 784 nM.

`CNc1cc(CN2C(=O)N(c3ccc(SC(F)(F)F)cc3)C(=O)C2(C)C)ccn1` showed an IC50 (MEF) of 312 nM.

For `CCNc1cc(CN2C(=O)N(c3ccc(SC(F)(F)F)cc3)C(=O)C2(C)C)ccn1`, the IC50 [2] was 47 nM, the IC50 [1] was 154 nM and the IC50 [3] was 154 nM. The IC50 (MEF) was 104 nM.

For `C[C@H]1C(=O)N(c2ccc(S(=O)(=O)C(F)(F)F)cc2)C(=O)N1Cc1ccnc2ccccc12`, the Cmax [9] was 1490 ng/mL, the IC50 (Cytochrome P450 1A2) was over 15000 nM and the solubility [10] was 9.9 µg/mL (≈ 21.4 µM). It also gave an IC50 (Cytochrome P450 3A4) of over 15000 nM, a remaining at 0.25 h [11] of 82% and an IC50 (Cytochrome P450 2C19) of over 15000 nM. For the same molecule, the IC50 (Cytochrome P450 2C9) was 700 nM, the remaining at 0.25 h [12] was 83% and the AUC(0-inf) [13] was 13200 ng·h/mL. The IC50 (Insulin receptor) was 300 nM, the IC50 (Cytochrome P450 2D6) was over 15000 nM and the bioavailability [14] was over 100%. The IC50 (MEF) was 300 nM.
